Test results: publication PMC11283614 (Veterinary World, 2024)
≈ marks a conversion by molar mass, not a printed value. Read-outs that look alike come from different tables or passages of the source. Marks after values point to notes of the source that are not given here.

Assays:
VERO cells = details: incubation 24 h
in vitro = details: African green monkey
SARS-CoV-2 [1] = test: Suppression of SARS-CoV-2 replication in Vero cells, CPE-based titration of supernatant; type: cell-based; details: for Time during which viral activity was inhibited: 100 TCD50/mL SARS-CoV-2, compounds added after 1 h virus incubation; for Suppression of viral activity: up to a dilution of 100 TCD50/ml
[2] = system: SARS-CoV-2 (delta strain); design: species or system Syrian hamsters; details: hamster, in vivo
SARS-CoV-2 [3] = test: Blood cell populations (blood smears) of infected hamsters; type: in vivo, Syrian hamsters; details: 7 dpi, therapeutic action
[4] = system: SARS-CoV-2 (delta strain); design: species or system Syrian hamsters; details: hamster, in vivo; remark: listed apart in the source
[5] = Syrian, in vivo; for Number of dead hamsters after 2 days / Number of dead hamsters after 7 days: hamster

Compound	CC50 (in vitro)	Time during which viral activity was inhibited (SARS-CoV-2 [1])	Suppression of viral activity (SARS-CoV-2 [1])	Development of lung injury (micro-CT) [2]	Blood cells: Band (SARS-CoV-2 [3])	Blood cells: Destroyed (SARS-CoV-2 [3])	Blood cells: Eosinophil (SARS-CoV-2 [3])	Blood cells: Lymphoblast (SARS-CoV-2 [3])	Blood cells: Lymphocyte (SARS-CoV-2 [3])	Blood cells: Metamyelocyte (SARS-CoV-2 [3])	Blood cells: Monocyte (SARS-CoV-2 [3])	Blood cells: Pathol neutrophil (SARS-CoV-2 [3])	Blood cells: Segment (SARS-CoV-2 [3])	Blood cells: Monoblast (SARS-CoV-2 [3])	also measured
Cc1cc2nnc(SCCOc3ccccc3)n2c(SCc2ccccc2)n1 [6d]	320 µg/mL (≈ 783 µM)														Monolayer preservation of VERO cells (toxicity) (VERO cells): -
CSc1nnc2ccc(-n3nc(C)cc3C)nn12 [10a]	40 µg/mL (≈ 154 µM)														
Cc1cc(C)n(-c2ccc3nnc(SCC(N)=O)n3n2)n1 [10b]	240 µg/mL (≈ 791 µM)	24 to 72 h	almost completely suppressed	inhibited	27 ± 8.6%	0.9 ± 0.02%	0.1 ± 0.01%	4.0 ± 0.3%	42.3 ± 6.7%	1.0 ± 0.1%	3.9 ± 0.9%	2.8 ± 0.7%	20%		Blood cells: Myeloid (SARS-CoV-2 [3]): 1 ± 0.05%; Liver pathology (leukocyte / neutrophilic diapedesis) [4]: Absence of neutrophils in liver tissues; Number of dead hamsters after 2 days ([5]; 0.16 mg/kg): 0; Number of dead hamsters after 7 days ([5]; 0.16 mg/kg): 0; Number of dead hamsters after 2 days ([5]; 0.8 mg/kg): 0; Number of dead hamsters after 7 days ([5]; 0.8 mg/kg): 1 ^*; Autopsy and histological findings in dead hamster ([5]; 0.8 mg/kg): * Autopsy and histological studies revealed massive hemorrhages in the abdominal cavity and leukopenia. In all investigated preparations except 10b, no lethal effect was observed throughout the experiment. No abnormal appearance or behavior was noted in all investigated groups.
Cc1cc(C)n(-c2ccc3nnc(SCCOc4ccccc4)n3n2)n1 [10d]	480 µg/mL (≈ 1310 µM)	24 to 72 h	almost completely suppressed	inhibited	20.7 ± 7.3%		0.5 ± 0.01%	0.9 ± 0.1%	58 ± 6.2%	3.1 ± 0.4%		0.9 ± 0.1%	13%	1.0 ± 0.1%	Blood cells: Basophil (SARS-CoV-2 [3]): 0.01 ± 0.005%; Spleen smear [4]: proliferation of late erythroblasts; Number of dead hamsters after 2 days ([5]; 0.32 mg/kg): 0; Number of dead hamsters after 7 days ([5]; 0.32 mg/kg): 0; Number of dead hamsters after 2 days ([5]; 1.6 mg/kg): 0; Number of dead hamsters after 7 days ([5]; 1.6 mg/kg): 0
Cc1cc(C)n(-c2ccc3nnc(C)n3n2)n1 [compound 8]	480 µg/mL (≈ 2100 µM)	24 to 72 h	almost completely suppressed	inhibited	10.0 ± 2.7%	1.9 ± 0.3%	0.5 ± 0.1%	1.1 ± 0.1%	77.2 ± 8.1%	2.0 ± 0.6%	1.2 ± 0.1%		4%	2.9 ± 0.5%	LN section histology (H&E) [4]: preserved structure and cellularity; Lung pathology (diffuse lymphocytic-macrophage infiltrates) [4]: Mild pathological manifestations; Number of dead hamsters after 2 days ([5]; 0.3 mg/kg): 0; Number of dead hamsters after 7 days ([5]; 0.3 mg/kg): 0; Number of dead hamsters after 2 days ([5]; 1.5 mg/kg): 0; Number of dead hamsters after 7 days ([5]; 1.5 mg/kg): 0
